{
  "source": "patent US11542508B2",
  "about": "“Isolated polynucleotides and polypeptides and methods of using same for expressing an expression product of interest” (priority 2016, dated 2023)",
  "format_in_all_cases": "cell-based",
  "key": {"[1]": {"tested_on": "phi3T", "experiment": "Growth dynamics of phage-infected cultures (phi3T infection of B. subtilis 168)", "method": "Specifically, overnight cultures of B. subtilis strain 168 were diluted 1:50 in LB media supplemented with 0.1 mM MnCl2 and 5 mM MgCl2, and incubated at 37° C. with shaking until reaching optical density (O.D) 600 nm=0.5. Phages (phi29, phi105, rho14 or phi3T) were added to the bacterial culture at MOI=1 and incubated for 3 hours. The media were centrifuged at 4000 rpm for 10 minutes at 4° C. and the supernatant was filtered with 0.2 μm filer (GE Healthcare Life Sciences, Whatman, CAT #10462200). Phages and large molecules were further filtered out from the media by using Amicon Ultra centrifugal filters at a cutoff of 3,000 NMWL (3 kDa) (Milipore, CAT #UFC900324). A plaque assay was performed in order to verify that no phages were left in the medium.\n7.5 mg (per reaction) of Proteinase K-Agarose from Tritirachium album (Sigma, CAT #P9290) were washed twice with 750 μl of sterile water and then resuspended with 750 μl of LB supplemented with 0.1 mM MnCl2 and 5 mM MgCl2. Following, the tubes were centrifuged again and the supernatant was discarded. 1.5 ml of phi3T-derived conditioned medium or control medium was added to a tube containing the washed proteinase K. The media were incubated for 2 hours at 37° C. with the proteinase K. The media were centrifuged and the supernatants were collected for the infection assay.\n(§1) Overnight cultures of bacteria were diluted 1:100 in LB media and incubated at 37° C. with shaking until reaching O.D 600 nm=0.1. The bacterial culture was centrifuged at 4000 rpm for 10 minutes at room temperature. The supernatant was discarded and the pellet was resuspended in LB medium supplemented with 0.1 mM MnCl2 and 5 mM MgCl2 at 10% of the initial volume. The concentrated bacterial culture was added to conditioned medium or medium supplemented with synthesized arbitrium peptide in a ratio of 1:9 (bacteria to medium) and incubated for 1 hour at room temperature. Following, the culture was infected with phages at MOI=0.1. Optical density measurements at a wavelength of 600 nm were taken using a TECAN Infinite 200 plate reader in a 96-wells plate."}, "[2]": {"target": "AimR (Bacillus phage phi3T, UniProt P0DOE3)", "sequence (P0DOE3 whole entry)": "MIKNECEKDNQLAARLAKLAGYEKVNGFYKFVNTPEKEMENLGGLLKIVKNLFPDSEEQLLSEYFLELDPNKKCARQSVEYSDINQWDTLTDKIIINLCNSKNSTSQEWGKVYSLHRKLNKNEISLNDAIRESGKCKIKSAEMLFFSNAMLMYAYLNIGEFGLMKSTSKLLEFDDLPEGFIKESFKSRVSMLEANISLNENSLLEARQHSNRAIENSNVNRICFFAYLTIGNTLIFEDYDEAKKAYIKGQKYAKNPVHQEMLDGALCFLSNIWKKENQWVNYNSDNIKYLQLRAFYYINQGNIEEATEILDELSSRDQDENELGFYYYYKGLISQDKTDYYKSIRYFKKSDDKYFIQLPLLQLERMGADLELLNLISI", "experiment": "ChIP-seq of His-tagged AimR on phage DNA", "conditions": "15 minutes after phage infection, with or without 1 μM peptide", "method": "For the ChIP-seq experiments, B. subtilis cell cultures were grown in 100 ml to O.D of 0.1 in LB at 37° C. Following, 50 ml of culture was centrifuged at 4000 rpm for 10 minutes at room temperature. The pellets were then suspended with 25 ml LB either containing or lacking the peptide (SAIRGA, SEQ ID NO: 269) at a final concentration of 1 μM. The cultures were placed for an additional incubation hour at room temperature with shaking. The cultures were then infected with phage (MOI=0.5) having a final plaque forming units (PFU) of 5×10^7 PFU/ml phages. 15 minutes post phage infection the cultures were centrifuged at 3000 g for 5 minutes at 4° C. The supernatant was discarded and the pellets were resuspended with 1 ml of ice-cold 1×PBS (10 mM Phosphate, 137 mM NaCl, 2.7 mM KCl, pH of 7.4).\nFor the formaldehyde fixation of protein to DNA, the 1 ml PBS resuspended pellets were mixed with 62.5 μl formaldehyde (Thermoscientific 16% formaldehyde solution (w/v) methanol-free ampule) yielding a final formaldehyde concentration of 1% (w/v) within the solution. The formaldehyde-containing cell suspension was incubated at room temperature for 10 minutes with mild agitation. Following, 75 μl 2M Glycine (f.c. 150 mM) was added to quench residual formaldehyde. Glycine-containing samples were kept on ice for an additional 10 minutes followed by centrifugation at 5500 g for 1 minute at 4° C. […]"}, "[3]": {"tested_on": "spBeta", "experiment": "Growth dynamics of phage-infected cultures (spBeta infection of B. subtilis BEST7003)", "conditions": "B. subtilis BEST7003 infected by spBeta at MOI=0.1, LB supplemented with synthesized peptide", "method": "as §1"}},
  "data": [
    {"smiles": "CC[C@H](C)[C@H](NC(=O)[C@H](C)NC(=O)[C@@H](N)CO)C(=O)N[C@@H](CCCNC(=N)N)C(=O)NCC(=O)N[C@@H](C)C(=O)O", "note": "[SAIRGA, Ser-Ala-Ile-Arg-Gly-Ala]", "values": [
      {"measurement": "effect on the phage infection dynamics (culture lysis, growth curve)", "setting": "[1]; B. subtilis 168 infected by phi3T at MOI=0.1, LB supplemented with synthesized peptide", "result": "reduced culture lysis"},
      {"measurement": "peptide concentration of maximal effect on the culture growth curve", "setting": "[1]; B. subtilis 168 infected by phi3T at MOI=0.1, effect saturated above", "result": 500, "unit": "nM"},
      {"measurement": "binding of AimR to its site in the phage genome (ChIP-seq)", "setting": "[2]", "result": "this binding only occurred when the arbitrium peptide was absent"},
      {"measurement": "effect on lysogeny / infection dynamics of spBeta", "setting": "[3]", "result": "had no effect on the infection dynamics of spBeta"}
    ]}
  ]
}
